Assay results: patent publication US20200079758A1, “[4-(PHENYLSULFONYL)PIPERAZIN-1-YL](1H-1,2,3-TRIAZOL-4-YL)METHANONES” (priority 2016, published 2020)

The compounds below were run against T1, recombinant human AKR1C3 (Homo sapiens, UniProt P42330) (assay: AKR1C3-inhibitory activity assay (generation of Coumberol from Coumberone)). Conditions: Coumberone 0.3 μM, NADPH 10 μM, 22° C., typically 90 min, average or median values.
T1 construct: GST (cleaved yes); made in house; host or cells: E. coli
T1 sequence (P42330 1-323): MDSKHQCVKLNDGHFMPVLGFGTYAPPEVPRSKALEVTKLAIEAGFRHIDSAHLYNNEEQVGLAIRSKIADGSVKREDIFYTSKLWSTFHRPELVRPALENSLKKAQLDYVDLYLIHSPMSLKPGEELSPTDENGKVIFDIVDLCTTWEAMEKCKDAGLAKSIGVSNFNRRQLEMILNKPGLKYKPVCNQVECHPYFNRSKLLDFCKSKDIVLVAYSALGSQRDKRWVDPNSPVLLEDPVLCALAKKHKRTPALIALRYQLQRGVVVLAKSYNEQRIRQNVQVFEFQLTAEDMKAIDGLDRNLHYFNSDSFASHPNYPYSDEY
Format: biochemical
Summary of the method: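 Recombinant human AKR1C3 (E. coli GST fusion, GST removed; ~1 nM) preincubated 15 min with compound, then NADPH 10 μM and Coumberone 0.3 μM (final), 22 °C, typically 90 min, in 50 mM K-phosphate pH 7. Stopped with EM-1404 (1 μM final); Coumberol fluorescence read at 520 nm (ex 380 nm), normalized to no-inhibitor and no-enzyme controls.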

Compound | IC50 [nM]
COC(=O)c1cccc(S(=O)(=O)N2CCN(C(=O)c3cnn[nH]3)CC2(C)C)c1 [Example 131, methyl 3-{[2,2-dimethyl-4-(1H-1,2,3-triazol-5-ylcarbonyl)piperazin-1-yl]sulfonyl}benzoate] | 204
CC1(C)CN(C(=O)c2cnn[nH]2)CCN1S(=O)(=O)c1ccc2c(c1)OCO2 [Example 132, [4-(1,3-benzodioxol-5-ylsulfonyl)-3,3-dimethylpiperazin-1-yl](1H-1,2,3-triazol-5-yl)methanone] | 22
CC1(C)CN(C(=O)c2cnn[nH]2)CCN1S(=O)(=O)c1cccc(F)c1Cl [Example 137, {4-[(2-chloro-3-fluorophenyl)sulfonyl]-3,3-dimethylpiperazin-1-yl}(1H-1,2,3-triazol-5-yl)methanone] | 19
COc1cc(F)ccc1S(=O)(=O)N1CCN(C(=O)c2cnn[nH]2)CC1(C)C [Example 138, {4-[(4-fluoro-2-methoxyphenyl)sulfonyl]-3,3-dimethylpiperazin-1-yl}(1H-1,2,3-triazol-5-yl)methanone] | 23
COc1ccc(C#N)cc1S(=O)(=O)N1CCN(C(=O)c2cnn[nH]2)CC1(C)C [Example 139, 3-{[2,2-dimethyl-4-(1H-1,2,3-triazol-5-ylcarbonyl)piperazin-1-yl]sulfonyl}-4-methoxybenzonitrile] | 285

Stronger by IC50, values ahead:

IC50 [nM] | Compound
16 | COc1cc(C)ccc1S(=O)(=O)N1CCN(C(=O)c2cnn[nH]2)CC1(C)C [Example 133, {4-[(2-methoxy-4-methylphenyl)sulfonyl]-3,3-dimethylpiperazin-1-yl}(1H-1,2,3-triazol-5-yl)methanone]
7 | CC1(C)CN(C(=O)c2cnn[nH]2)CCN1S(=O)(=O)c1cccc(Cl)c1C#N [Example 134, 2-chloro-6-{[2,2-dimethyl-4-(1H-1,2,3-triazol-5-ylcarbonyl)piperazin-1-yl]sulfonyl}benzonitrile]
5 | CC1(C)CN(C(=O)c2cnn[nH]2)CCN1S(=O)(=O)c1cc(F)ccc1Cl [Example 136, {4-[(2-chloro-5-fluorophenyl)sulfonyl]-3,3-dimethylpiperazin-1-yl}(1H-1,2,3-triazol-5-yl)methanone]
4 | CC1(C)CN(C(=O)c2cnn[nH]2)CCN1S(=O)(=O)c1cccc2c1OCC2 [Example 135, [4-(2,3-dihydro-1-benzofuran-7-ylsulfonyl)-3,3-dimethylpiperazin-1-yl](1H-1,2,3-triazol-5-yl)methanone]
2 | Cc1cc(Cl)cc(S(=O)(=O)N2CCN(C(=O)c3cnn[nH]3)CC2(C)C)c1 [Example 140, {4-[(3-chloro-5-methylphenyl)sulfonyl]-3,3-dimethylpiperazin-1-yl}(1H-1,2,3-triazol-5-yl)methanone]
